The subject of experiment [1] is SCG neurons. Description: Protection of SCG neurons from anti-NGF killing. The format is cell-based, Sprague Dawley rats. The following applies: Rattus norvegicus, Neuron, anti-NGF antibody, serum and NGF free 48 hours, Alamar Blue, +/−1 uM, read-out: IC(50), rescue from anti-NGF killing of SCG neurons. Here is the method:
Neurotrophins are critical to the growth, development, and survival of small fiber neurons of the PNS. SCG neurons are neurons of the PNS that undergo apoptosis upon NGF withdrawal. In a typical experiment SCG neurons are cultured in the presence of NGF, which induces survival and neurite out-growth. After 5 days the NGF is removed by either the addition of anti-NGF polyclonal antibody (Sigma) or by repeated washings (4 times) with NGF free media, resulting in the apoptosis of up to 90% of the neurons after 48 hours, as measured by MTS staining.
After 4 days the cells were treated with anti-NGF antibody (Sigma). At this time compound was added and the cells were maintained serum and NGF free for 48 hours, at which time viability was assessed using Alamar Blue (Medicorp) staining.

The test system of experiment [2] is SCG neurons. Description: cells. It is filed as cell-based, Sprague Dawley rats. The following applies: Rattus norvegicus, Neuron. Here is the method:
Taxol™ is regularly used in breast cancer chemotherapy. In cancer cells Taxol™ binds to the cyto-skeletal protein tubulin, thereby inhibiting normal microtubular assembly and inducing cellular apoptosis. Despite its potency as an anti-tumour agent, Taxol™ is also toxic to neurons, inducing dose limiting peripheral neuropathies. The addition of Taxol™ (100 ng/mL) to cultured SCG neurons induces the degradation or loss of upwards of 80% of the neurons.
FIG. 1 illustrates the protection provided by compound 1 (referred to here as AEG3482) against Taxol™ induced killing. PI Sprague Dawley rat SCG neurons were cultured and incubated with NGF (50 ng/mL) for 5 days.

In the next experiment the target is CA II (Homo sapiens, UniProt P00918). Description: CA II inhibition. It is filed as biochemical. Here is the method: CA II inhabition was measured using the protocol described by Pocker, Y.'Stone, J. Biochemistry 1967, 6, 668.
[3] abbreviates: Taxol™ (50 ng/mL), viability 48 hours later, MTS, read-out: IC(50), protection of SCG neurons from Taxol killing.
Setting [4] is: read-out: IC(50), CA II inhibition.

Where a name gives a salt, the structure may show the parent alone. Read-outs that look alike come from different tables or passages of the source.

In the case of `NS(=O)(=O)c1nn2cc(-c3ccccc3F)nc2s1` [Compound 2, 6-(2-Fluorophenyl)imidazo[2,1-b]-1,3,4-thiadiazole-2-sulfonamide], the IC50 with SCG neurons [1] worked out at 20 µM.

Turning to `NS(=O)(=O)c1nn2cc(-c3ccc4c(c3)OC3(CCCCC3)O4)nc2s1` [Compound 23, 6-(2-spiro(cyclohexyl)benzo-1,3-dioxol-5-yl)imidazo[2,1,-b]-1,3,4-thiadiazole-2-sulfonamide], the IC50 with SCG neurons [1] was determined as 25 µM.

Consider `NS(=O)(=O)c1nn2cc(-c3ccc(Oc4cccc(Br)c4)cc3)nc2s1` [Compound 94, 6-(3-bromophenoxyphenyl)imidazo[2,1-b]-1,3,4-thiadiazole-2-sulfonamide], for which, in the experiment with SCG neurons [1], the IC50 amounted to 10 µM.

Regarding `NS(=O)(=O)c1nn2cc(-c3ccccn3)nc2s1` [Compound 106, 6-(2-Pyridyl)imidazo[2,1-b]-1,3,4-thiadiazole-2-sulfonamide HCl], the IC50 in the experiment on SCG neurons [1] amounted to 7 µM.

Take `NS(=O)(=O)c1nn2cc(-c3ccc(Oc4ccccc4Br)cc3)nc2s1` [Compound 93, 6-(2-bromophenoxyphenyl)imidazo[2,1-b]-1,3,4-thiadiazole-2-sulfonamide]: the IC50 with SCG neurons [1] stood at 7 µM.

Consider `NS(=O)(=O)c1nn2cc(-c3ccc(-c4cccc(C(F)(F)F)c4)cc3)nc2s1` [Compound 150, 6-(3′-trifluoromethylbiphen-4-yl)imidazo[2,1-b]-1,3,4-thiadiazole-2-sulfonamide sodium salt], for which the IC50 with SCG neurons [1] (48 h) came to 7 µM.

Take `COc1ccc(-c2cccc(-c3cn4nc(S(N)(=O)=O)sc4n3)c2)cc1` [Compound 86, 6-(4′methoxybiphen-3-yl)imidazo[2,1-b]-1,3,4-thiadiazole-2-sulfonamide]: in the experiment with SCG neurons [1], the IC50 amounted to 17 µM.

Regarding `NS(=O)(=O)c1nn2cc(-c3cccc(F)c3)nc2s1` [Compound 3, 6-(3-Fluorophenyl)imidazo[2,1-b]-1,3,4-thiadiazole-2-sulfonamide], the IC50 in the experiment with SCG neurons [1] was 10 µM.

Take `NS(=O)(=O)c1nn2cc(-c3c(F)c(F)c(N4CCOCC4)c(F)c3F)nc2s1` [Compound 9, 6-(4-Morpholino-2,3,5,6-tetrafluorophenyl)imidazo[2,1-b]-1,3,4-thiadiazole-2-sulfonamide]: the IC50 in the experiment on SCG neurons [1] is 8 µM.

With `Cc1ccc(-c2cn3nc(S(N)(=O)=O)sc3n2)cc1` [Compound 47, 6-(4-Methylphenyl)imidazo[2,1-b]-1,3,4-thiadiazole-2-sulfonamide], the IC50 is 6 µM with SCG neurons [2] (setting [3]) and 0.361 µM at CA II (setting [4]).

For `CN(C)c1cccc(Oc2ccc(-c3cn4nc(S(N)(=O)=O)sc4n3)cc2)c1` [Compound 96, 6-(3-dimethylaminophenoxyphenyl)imidazo[2,1-b]-1,3,4-thiadiazole-2-sulfonamide], the IC50 in the experiment with SCG neurons [1] was 20 µM.

Regarding `COc1ccc(Oc2ccc(-c3cn4nc(S(N)(=O)=O)sc4n3)cc2)cc1` [Compound 98, 6-(4-(4-methoxyphenoxy)phenyl)imidazo[2,1-b]-1,3,4-thiadiazole-2-sulfonamide], the IC50 in the experiment on SCG neurons [1] was found to be 17 µM.

For the compound `NS(=O)(=O)c1nn2cc(-c3ccc(Oc4ccc(F)cc4)cc3)nc2s1` [Compound 88], the IC50 in the experiment on SCG neurons [1] was determined as 10 µM.

In the case of `COc1ccc(-c2cn3nc(S(N)(=O)=O)sc3n2)c(OC)c1` [Compound 19, 6-(2,4-Dimethoxyphenyl)imidazo[2,1-b]-1,3,4-thiadiazole-2-sulfonamide], the IC50 in the experiment on SCG neurons [2] (setting [3]) was 15 µM; at CA II (setting [4]) it was 0.373 µM.

`COc1cc(-c2cn3nc(S(N)(=O)=O)sc3n2)ccc1OCCCOCc1ccccc1` [Compound 36]: the IC50 with SCG neurons [1] is 17 µM.

In the case of `NS(=O)(=O)c1nn2cc(-c3ccc(-c4ccc5c(c4)OCO5)cc3)nc2s1` [Compound 79], the IC50 with SCG neurons [1] stood at 7 µM.

`CCSc1c(F)c(F)c(-c2cn3nc(S(N)(=O)=O)sc3n2)c(F)c1F` [Compound 7, 6-(4-Ethylthio-2,3,5,6-tetrafluorophenyl)imidazo[2,1-b]-1,3,4-thiadiazole-2-sulfonamide]: the IC50 in the experiment on SCG neurons [2] (setting [3]) worked out at 4 µM; at CA II (setting [4]), 0.581 µM.

Consider `N#Cc1ccc(-c2cn3nc(S(N)(=O)=O)sc3n2)cc1` [Compound 42, 6-(4-cyanophenyl)imidazo[2,1-b]-1,3,4-thiadiazole-2-sulfonamide], for which the IC50 with SCG neurons [2] (setting [3]) stood at 3 µM; at CA II (setting [4]), 0.272 µM.

On to `NS(=O)(=O)c1nn2cc(-c3ccc(Oc4ccc(Cl)cc4)cc3)nc2s1` [Compound 91, 6-(4-chlorophenoxyphenyl)imidazo[2,1-b]-1,3,4-thiadiazole-2-sulfonamide], for which the IC50 in the experiment with SCG neurons [1] was 7 µM.

Regarding `NS(=O)(=O)c1nn2cc(-c3ccc(Cl)c(Cl)c3)nc2s1` [Compound 11, 6-(3,4-Dichlorophenyl)imidazo[2,1-b]-1,3,4-thiadiazole-2-sulfonamide], the IC50 in the experiment with SCG neurons [2] (setting [3]) worked out at 3 µM; at CA II (setting [4]) it was 1.8 µM.

Turning to `NS(=O)(=O)c1nn2cc(-c3ccc(-c4ccsc4)cc3)nc2s1` [Compound 85, 6-(thiophen-3-yl-phenyl)imidazo[2,1-b]-1,3,4-thiadiazole-2-sulfonamide], in the experiment on SCG neurons [1], the IC50 is over 30 µM.

Take `CNS(=O)(=O)c1nn2cc(-c3ccccc3)nc2s1` [Compound 137, 6-Phenyl-imidazo[2,1-b]-1,3,4-thiadiazole-2-N-methylsulfonamide]: the IC50 with SCG neurons [2] (setting [3]) was determined as 10 µM; with SCG neurons [2] (read-out: IC(50) against Taxol killing of SCGs), 7 µM; on CA II (read-out: CAII(50) / CAII IC(50)) it was 2.06 µM. Moreover, the “decrease in CAII activity relative to compound 1” value at CA II (compound 137 versus compound 1) is on record as 100 fold.

As to `NS(=O)(=O)c1nn2cc(-c3ccc(Cl)c(Cl)c3Cl)nc2s1` [Compound 12, 6-(2,3,4-trichlorophenyl)imidazo[2,1-b]-1,3,4-thiadiazole-2-sulfonamide], the IC50 in the experiment on SCG neurons [2] (setting [3]) was found to be 5 µM; at CA II (setting [4]), 1.59 µM.

Turning to `NS(=O)(=O)c1nn2cc(-c3ccc(OC(F)(F)F)cc3)nc2s1` [Compound 25, 6-(4-trifloromethoxyphenyl)imidazo[2,1-b]-1,3,4-thiadiazole-2-sulfonamide], the IC50 is 5 µM with SCG neurons [2] (setting [3]) and 0.302 µM on CA II (setting [4]).

On to `Cc1ccc(-c2cn3nc(S(N)(=O)=O)sc3n2)c(C)c1` [Compound 48, 6-(2,4-dimethylphenyl)imidazo[2,1-b]-1,3,4-thiadiazole-2-sulfonamide], for which the IC50 in the experiment on SCG neurons [2] (setting [3]) was determined as 5 µM; at CA II (setting [4]) it was 0.288 µM.

As to `NS(=O)(=O)c1nn2cc(-c3ccc(Br)cc3)nc2s1` [Compound 14, 6-(4-Bromophenyl)-imidazo[2,1-b]-1,3,4-thiadiazole-2-sulfonamide], the results for the IC50 with SCG neurons [2] (setting [3]) and on CA II (setting [4]) were 5 µM and 0.198 µM, respectively.

As to `NS(=O)(=O)c1nn2cc(-c3ccc(F)c(F)c3)nc2s1` [Compound 5, 6-(3,4-Difluorophenyl)imidazo[2,1-b]-1,3,4-thiadiazole-2-sulfonamide], the IC50 in the experiment on SCG neurons [2] (setting [3]) stood at 5 µM; at CA II (setting [4]) it was 0.192 µM.

For the compound `NS(=O)(=O)c1nn2cc(-c3cccc([N+](=O)[O-])c3)nc2s1` [Compound 37, 6-(3-Nitrophenyl)imidazo[2,1-b]-1,3,4-thiadiazole-2-sulfonamide], the results for the IC50 with SCG neurons [2] (setting [3]) and on CA II (setting [4]) were 10 µM and 0.199 µM, respectively.

As for `N#Cc1cccc(-c2cn3nc(S(N)(=O)=O)sc3n2)c1` [Compound 41, 6-(3-cyanophenyl)imidazo[2,1-b]-1,3,4-thiadiazole-2-sulfonamide], the IC50 in the experiment with SCG neurons [2] (setting [3]) is 3 µM; at CA II (setting [4]), 0.346 µM.

For the compound `NS(=O)(=O)c1nn2cc(-c3c(F)c(F)c(SCc4ccccc4)c(F)c3F)nc2s1` [Compound 8, 6-(4-Benzylthio-2,3,5,6-tetrafluorophenyl)imidazo[2,1-b]-1,3,4-thiadiazole-2-sulfonamide], the IC50 is 5 µM in the experiment with SCG neurons [2] (setting [3]) and 1.47 µM on CA II (setting [4]).

The values are drawn from patent publication US7772260B2, “Imidazo[2,1-b]-1,3,4-thiadiazole sulfonamides” (Aegera Therapeutics Inc., priority 2001, dated 2010).
